In patent publication US10576082B2, “ErbB2 regulates autophagic flux to modulate the proteostasis of APP-CTFs in alzheimer's disease” (Academia Sinica, priority 2016, dated 2020):

Key:
[1] = test system: γ-secretase-mediated proteolysis of C99 (CG cells); test: Cell-based C99-specific γ-secretase assay (CG cells, Gal4 luciferase reporter); conditions: dose-dependent manner
Procedure: (§1) (A) Adherent CG and NG cells (20,000 cells/well) were treated with 1 μM of the indicated ErbB1/2-selective tyrosine kinase inhibitors in the presence of 1 μg/ml tetracycline at 37° C. for 24 h. The luminescence signals emitted by cells treated with vehicle alone (Ctrl, 0.1% DMSO) were referred to as 100% relative luminescence signals. The luminescence signals generated by γ-secretase-mediated proteolysis of C99 (CG) or NΔE (NG) were determined using the Steady-Glo luciferase assay reagent. (B) HEK293 overexpressing C99-YFP cells were treated with 1 μM of the indicated ErbB1/2 tyrosine kinase inhibitors at 37° C. for 24 h. Clarified lysates were analyzed by Western blotting and quantified by Image J. (C) HEK293 overexpressing ErbB1 ErbB2, CFP-tagged C99, and YFP-tagged NΔE cells were infected with gene-targeting shRNA-encoding lentivirus (shErbB1 or shErbB2) at 37° C. for 48 h. Clarified lysates containing equivalent amounts of proteins were examined by Western blotting and quantified by Image J. (D) CG and NG cells were infected with gene-targeting shRNA-encoding lentivirus at 37° C. for 48 h. Following induction with 1 μg/ml tetracycline for 24 h. […] Data are shown as the mean±SD from three independent experiments, and were analyzed by Student's t-tests. * p<0.05. […]

[2] = test system: γ-secretase-mediated proteolysis of NΔE (NG cells); test: Cell-based NΔE-specific γ-secretase assay (NG cells, Gal4 luciferase reporter); conditions: dose-dependent manner
Procedure: as §1

[3] = test system: zebrafish embryos expressing GFP-tagged C99; test: Phenotype of C99-expressing zebrafish embryos (curved trunk, Notch-dependent somite development); format: in vivo; conditions: zebrafish, in vivo
[4] = test system: γ-secretase cleavage of CFP-C99 and YFP-NΔE in HEK293 (CCNY) cells; test: Cell-based C99-NΔE dual γ-secretase assay (CCNY cells); conditions: CCNY cell line
Procedure: To generate a cellular γ-secretase assay that could be used to simultaneously identify cleavage of C99 and NΔE and the production of AICD and NICD, we […] HEK293 cells with pAS2-CCNY and selected transfectants with DMEM medium containing 10% FBS and 250 μg/ml zeocin. […] The CCNY clone was selected and optimized for the cell-based C99-NΔE dual γ-secretase assay.

[5] = test system: HEK293 cells overexpressing ErbB1, ErbB2, CFP-tagged C99, and YFP-tagged NΔE; test: Lysosome inhibitor rescue after ErbB2 knockdown, Western blotting of HEK293 cells co-expressing ErbB1, ErbB2, CFP-C99, YFP-NΔE; format: cell-based; conditions: 10 μM chloroquine or 10 mM ammonium chloride, 37° C., 24 h after 48 h shRNA infection
Procedure: Clarified lysates containing equivalent amounts of proteins were analyzed by Western blotting. (B, C) HEK293 overexpressing CFP-LC3 cells were infected with lentivirus encoding shRNA targeting LacZ ErbB2, or ErbB2 plus ATG5 for 48 h. The autophagy induction was analyzed by fluorescence confocal microscopy. The number of CFP-LC3 puncta per cell was quantified. The levels of LC3-I, LC3-II, and GAPDH were analyzed by Western blotting. (D, E) HEK293 cells overexpressing ErbB1, ErbB2, CFP-tagged C99, and YFP-tagged NΔE were infected with lentivirus encoding shRNA targeting LacZ (Ctrl), ErbB1, or ErbB2 for 48 h. […] The levels of LC3-1, LC3-II, and p62 were analyzed by Western blotting and quantified by NIH Image J. Conditional media were harvested and processed for determination of secreted Aβ40 using a colourimetric Aβ40-specific ELISA kit. […] The quantitative data are shown as mean±SD from three independent experiments, and were analyzed by Student's t-tests. * p<0.05.
Preparation of cell extracts. […] Following the removal of cell debris by centrifugation, clarified lysates were processed for immunoprecipitation, Western blotting, or quantification of BCA protein content.
Western blotting analysis. Protein concentration was measured with the BCA Protein Assay Kit (Pierce). […]

In the case of `C[C@H](NC(=O)Cc1cc(F)cc(F)c1)C(=O)N[C@H](C(=O)OC(C)(C)C)c1ccccc1` [DAPT, N—[N-(3,5-difluorophenacetyl-L-alanyl)]-S-phenylglycine t-butyl ester], the “γ-secretase-dependent luciferase signals in CG cells” value [1] is reported as “decreased γ-secretase-dependent luciferase signals”, the “γ-secretase-dependent luciferase signals in NG cells” value [2] is reported as “decreased γ-secretase-dependent luciferase signals” and the “embryo phenotype (trunk, tail, pigmentation; developmental defects)” value [3] is reported as “severe developmental defects”. For the same molecule, the “cleavage of CFP-C99 and YFP-NΔE” value [4] was “completely suppressed”.
In the case of `Cl.N` [ammonium chloride], the “rescue of the reduction in C99 and AICD elicited by ErbB2 knockdown” value [5] is reported as “rescued”.
With `CCN(CC)CCCC(C)Nc1ccnc2cc(Cl)ccc12` (stereo not drawn) [chloroquine] the “rescue of the reduction in C99 and AICD elicited by ErbB2 knockdown” value [5] was “rescued”.
